According to US8962674B2 (Tokyo Institute of Technology, priority 2006, dated 2015):

melting point [°C] | Structure (SMILES)
82 to 88 | CN(C)c1ccc(-c2ccccc2)cc1/C=C/C(=O)CC(=O)/C=C/c1ccc(O)cc1 [CU537, (1E,6E)-1-(4-dimethylaminobiphenyl-3-yl)-7-(4-hydroxyphenyl)hepta-1,6-diene-3,5-dione]
64 to 70 | COc1ccc(/C=C/C(=O)CC(=O)/C=C/c2ccc(OC)c(O)c2)c(OC)c1 [CU074, (1E,6E)-1-(2,4-dimethoxyphenyl)-7-(3-hydroxy-4-methoxyphenyl)hepta-1,6-diene-3,5-dione]
211 to 216 | O=C(/C=C/c1ccc(O)cc1)CC(=O)/C=C/c1ccc2[nH]nnc2c1 [CU346, (1E,6E)-1-(1H-benzotriazol-5-yl)-7-(4-hydroxyphenyl)hepta-1,6-diene-3,5-dione]
248 to 254 | O=C(/C=C/c1ccc(O)cc1Cl)CC(=O)/C=C/c1ccc(O)cc1Cl [CU362, (1E,6E)-1,7-bis(2-chloro-4-hydroxyphenyl)hepta-1,6-diene-3,5-dione]
175 to 179 | Nc1ccc(OCc2ccccc2)cc1/C=C/C(=O)CC(=O)/C=C/c1ccc(O)cc1 [CU489, (1E,6E)-1-(2-amino-5-benzyloxyphenyl)-7-(4-hydroxyphenyl)hepta-1,6-diene-3,5-dione]
170 to 174 | O=C(/C=C/c1cccc2ncccc12)CC(=O)/C=C/c1cccc2ncccc12 [CU384, (1E,6E)-1,7-bis(quinolin-5-yl)hepta-1,6-diene-3,5-dione]
107 to 112 | Cc1ccc(S(=O)(=O)n2ccc3ccc(/C=C/C(=O)CC(=O)/C=C/c4ccc(O)cc4)cc32)cc1 [CU404, (1E,6E)-1-(4-hydroxyphenyl)-7-(1-tosyl-1H-indol-6-yl)hepta-1,6-diene-3,5-dione]
194 to 198 | O=C(/C=C/c1ccc(O)cc1)CC(=O)/C=C/c1cccc(Oc2ccccc2)c1 [CU214, (1E,6E)-1-(4-hydroxyphenyl)-7-(3-phenoxyphenyl)hepta-1,6-diene-3,5-dione]
77 to 83 | COc1cc(/C=C/C(=O)CC(=O)/C=C/c2ccccc2O)ccc1O [CU082, (1E,6E)-1-(4-hydroxy-3-methoxyphenyl)-7-(2-hydroxyphenyl)hepta-1,6-diene-3,5-dione]
97 to 100 | CCn1c2ccccc2c2cc(CCC(=O)CC(=O)CCc3ccc(OC)c(O)c3)ccc21 [CU508, 1-(9-ethyl-9H-carbazol-3-yl)-7-(3-hydroxy-4-methoxyphenyl)heptane-3,5-dione]
197 to 200 | O=C(/C=C/c1ccc(O)cc1)CC(=O)/C=C/c1ccc2c(c1)OCO2 [CU215, (1E,6E)-1-(benzo[1,3]dioxol-5-yl)-7-(4-hydroxyphenyl)hepta-1,6-diene-3,5-dione]
71 to 78 | CCN(CC)c1ccc(/C=C/C(=O)CC(=O)/C=C/c2ccc(O)cc2)c(OCc2ccc(OC)cc2)c1 [CU448, (1E,6E)-1-[4-diethylamino-2-(4-methoxybenzyloxy)phenyl]-7-(4-hydroxyphenyl)hepta-1,6-diene-3,5-dione]
68 to 75 | COc1cc(/C=C/C(=O)CC(=O)/C=C/c2ccc(N(C)C)c(OC)c2)ccc1O [CU033, (1E,6E)-1-(4-dimethylamino-3-methoxyphenyl)-7-(4-hydroxy-3-methoxyphenyl)hepta-1,6-diene-3,5-dione]
156 to 160 | CCN(CC)c1ccc(/C=C/C(=O)CC(=O)/C=C/c2ccc(O)c(OC)c2)c(OC(C)C)c1 [CU439, (1E,6E)-1-(4-diethylamino-2-isopropyloxyphenyl)-7-(4-hydroxy-3-methoxyphenyl)hepta-1,6-diene-3,5-dione]
172 to 178 | O=C(/C=C/c1ccc(O)cc1)CC(=O)/C=C/c1cc(OCc2ccccc2)ccc1-c1ccccc1 [CU527, (1E,6E)-1-(4-benzyloxybiphenyl-2-yl)-7-(4-hydroxyphenyl)hepta-1,6-diene-3,5-dione]
83 to 88 | CN(C)c1cc(-c2ccccc2)ccc1/C=C/C(=O)CC(=O)/C=C/c1ccc(O)cc1 [CU536, (1E,6E)-1-(3-dimethylaminobiphenyl-4-yl)-7-(4-hydroxyphenyl)hepta-1,6-diene-3,5-dione]
144 to 148 | COc1ccc(/C=C/C(=O)CC(=O)/C=C/c2cccc(OC)c2OC)cc1O [CU071, (1E,6E)-1-(2,3-dimethoxyphenyl)-7-(3-hydroxy-4-methoxyphenyl)hepta-1,6-diene-3,5-dione]
149 to 152 | COc1cc(/C=C/C(=O)CC(=O)/C=C/c2ccc3c(c2)OCO3)ccc1O [CU009, (1E,6E)-1-(benzo[1,3]dioxol-5-yl)-7-(4-hydroxy-3-methoxyphenyl)hepta-1,6-diene-3,5-dione]
243 to 249 | O=C(/C=C/c1ccc(O)cc1)CC(=O)/C=C/c1cn(Cc2ccccc2)c2ccccc12 [CU331, (1E,6E)-1-(1-benzyl-1H-indol-3-yl)-7-(4-hydroxyphenyl)hepta-1,6-diene-3,5-dione]

melting point [°C] | Structure (SMILES)
68 to 74 | CN(C)c1ccc(C(F)(F)F)cc1/C=C/C(=O)CC(=O)/C=C/c1ccc(O)cc1 [CU535, (1E,6E)-1-(2-dimethylamino-5-trifluoromethylphenyl)-7-(4-hydroxyphenyl)hepta-1,6-diene-3,5-dione]
228 to 233 | COc1cc(/C=C/C(=O)CC(=O)/C=C/c2ccc(O)cc2)cc(OC)c1O [CU134, (1E,6E)-1-(4-hydroxy-3,5-dimethoxyphenyl)-7-(4-hydroxyphenyl)hepta-1,6-diene-3,5-dione]
238 to 241 | CN(C)c1ccc(/C=C/C(=O)CC(=O)/C=C/c2ccc(N(C)C)cc2Cl)c(Cl)c1 [CU412, (1E,6E)-1,7-bis(2-chloro-4-dimethylaminophenyl)hepta-1,6-diene-3,5-dione]
161 to 167 | N[C@H](Cc1ccccc1)C(=O)Nc1ccc(/C=C/C(=O)CC(=O)/C=C/c2ccc(O)cc2)cc1 [CU423, (1E,6E)-1-[4-((R)-2-amino-3-phenylpropionylamino)phenyl]-7-(4-hydroxyphenyl)hepta-1,6-diene-3,5-dione]
155 to 159 | COc1cc(/C=C/C(=O)CC(=O)/C=C/c2ccc(OCCCN(C)C)cc2)ccc1O [CU018, (1E,6E)-1-[4-(3-dimethylaminopropoxy)phenyl]-7-(4-hydroxy-3-methoxyphenyl)hepta-1,6-diene-3,5-dione]
263 to 266 | O=C(/C=C/c1ccc2[nH]ccc2c1)CC(=O)/C=C/c1ccc2[nH]ccc2c1 [CU382, (1E,6E)-1,7-bis(1H-indol-5-yl)hepta-1,6-diene-3,5-dione]
159 to 165 | CCCN(CCC)C(=O)c1cccc(/C=C/C(=O)CC(=O)/C=C/c2ccc(O)cc2)c1 [CU474, (1E,6E)-1-[3-(di-n-propylaminocarbonyl)phenyl]-7-(4-hydroxyphenyl)hepta-1,6-diene-3,5-dione]
131 to 138 | O=C(/C=C/c1ccc(O)cc1)CC(=O)/C=C/c1ccc(O)cc1Cl [CU127, (1E,6E)-1-(2-chloro-4-hydroxyphenyl)-7-(4-hydroxyphenyl)hepta-1,6-diene-3,5-dione]
150 to 155 | COc1cc(/C=C/C(=O)CC(=O)/C=C/c2ccc(F)c(OC)c2)ccc1O [CU138, (1E,6E)-1-(4-fluoro-3-methoxyphenyl)-7-(4-hydroxy-3-methoxyphenyl)hepta-1,6-diene-3,5-dione]
83 to 87 | COc1cc(/C=C/C(=O)CC(=O)/C=C/c2cccc3cccnc23)ccc1O [CU453, (1E,6E)-1-(4-hydroxy-3-methoxyphenyl)-7-(quinolin-8-yl)hepta-1,6-diene-3,5-dione]
147 to 149 | COc1cc(/C=C/C(=O)CC(=O)/C=C/c2ccc(SC)cc2)ccc1O [CU012, (1E,6E)-1-(4-hydroxy-3-methoxyphenyl)-7-(4-methylthiophenyl)hepta-1,6-diene-3,5-dione]
175 to 178 | O=C(/C=C/c1ccc(O)cc1)CC(=O)/C=C/c1ccc(Oc2ccccc2)cc1 [CU213, (1E,6E)-1-(4-hydroxyphenyl)-7-(4-phenoxyphenyl)hepta-1,6-diene-3,5-dione]
167 to 170 | COc1ccc(O)c(/C=C/C(=O)CC(=O)/C=C/c2ccc(O)cc2)c1 [CU253, (1E,6E)-1-(2-hydroxy-5-methoxyphenyl)-7-(4-hydroxyphenyl)hepta-1,6-diene-3,5-dione]
125 to 130 | COc1cc(/C=C/C(=O)CC(=O)/C=C/c2cc(O)ccc2O)ccc1O [CU106, (1E,6E)-1-(2,5-dihydroxyphenyl)-7-(4-hydroxy-3-methoxyphenyl)hepta-1,6-diene-3,5-dione]
225 to 230 | O=C(/C=C/c1ccc(O)cc1)CC(=O)/C=C/c1ccc2ccccc2c1 [CU149, (1E,6E)-1-(4-hydroxyphenyl)-7-(naphthalen-2-yl)hepta-1,6-diene-3,5-dione]
74 to 81 | CN(C)c1cc(Br)ccc1/C=C/C(=O)CC(=O)/C=C/c1ccc(O)cc1 [CU533, (1E,6E)-1-(4-bromo-2-dimethylaminophenyl)-7-(4-hydroxyphenyl)hepta-1,6-diene-3,5-dione]
78 to 85 | COc1ccc(/C=C/C(=O)CC(=O)/C=C/c2ccc(O)c(OC)c2)cc1O [CU105, (1E,6E)-1-(3-hydroxy-4-methoxyphenyl)-7-(4-hydroxy-3-methoxyphenyl)hepta-1,6-diene-3,5-dione]
68 to 72 | CN(C)c1ccc(Br)cc1/C=C/C(=O)CC(=O)/C=C/c1ccc(O)cc1 [CU534, (1E,6E)-1-(5-bromo-2-dimethylaminophenyl)-7-(4-hydroxyphenyl)hepta-1,6-diene-3,5-dione]

Structure (SMILES) | melting point [°C]
CC(C)(C)OC(=O)N[C@@H](Cc1ccccc1)C(=O)Nc1ccc(/C=C/C(=O)CC(=O)/C=C/c2ccc(O)cc2)cc1 [CU396, (1E,6E)-1-(4-hydroxyphenyl)-7-[4-((S)-2-tert-butoxycarbonylamino-3-phenylpropionylamino)phenyl]hepta-1,6-diene-3,5-dione] | 116 to 121
CC(C)(C)OC(=O)N1CCN(c2ccccc2/C=C/C(=O)CC(=O)/C=C/c2ccc(O)cc2)CC1 [CU499, (1E,6E)-1-{2-[4-(tert-butoxycarbonyl)piperazin-1-yl]phenyl}-7-(4-hydroxyphenyl)hepta-1,6-diene-3,5-dione] | 115 to 121
